From US7078059B2, “Treatment of bone diseases” (Shire Holdings AG, priority 2000, dated 2006)
“And” between values parts separate entries of the source, which are not always exact repeats. Equal values may be shown once. Read-outs that look alike come from different tables or passages of the source.

Legend:
[1] = tested on: osteoclasts cultured on bone slices; assay: In vitro bone resorption assay (osteoclasts on bovine bone slices, CrossLaps); format: cell-based, rat; settings: for Relative medium CrossLaps amounts per osteoclast, replicates 1-6 / Relative medium CrossLaps amounts per osteoclast, Mean ± SD: first bone resorption assay; for Relative medium CrossLaps amounts per osteoclast, replicates 1-6 / Relative medium CrossLaps amounts per osteoclast, Mean ± SD / Relative medium CrossLaps amounts per osteoclasts, Mean ± SD / Relative medium CrossLaps amounts per osteoclasts, replicates 1-6: relative to mean of baseline group, 72 hours; for Relative medium CrossLaps amounts per osteoclast, replicates 1-6: LA number = ng/ml lanthanum in culture medium; for Relative medium CrossLaps amounts per osteoclast, replicates 1-6 / Relative medium CrossLaps amounts per osteoclast, Mean ± SD / Relative medium CrossLaps amounts per osteoclasts, Mean ± SD / Relative medium CrossLaps amounts per osteoclasts, replicates 1-6 / Combined results on bone resorption (relative medium CrossLaps per osteoclast), Mean ± SD: Control = Baseline+10 nM bafilomycin Al; for Relative medium CrossLaps amounts per osteoclast, Mean ± SD / Relative medium CrossLaps amounts per osteoclasts, Mean ± SD / Relative medium CrossLaps amounts per osteoclasts, replicates 1-6 / Combined results on bone resorption (relative medium CrossLaps per osteoclast), Mean ± SD / Effect on bone resorption / bone resorbing activity of mature osteoclasts, in words: LA number = ng/ml lanthanum; for Relative medium CrossLaps amounts per osteoclasts, Mean ± SD / Relative medium CrossLaps amounts per osteoclasts, replicates 1-6: second bone resorption assay; for Combined results on bone resorption (relative medium CrossLaps per osteoclast), Mean ± SD: tables 1 and 2 combined, number 12; for Effect on bone resorption / bone resorbing activity of mature osteoclasts, in words: lanthanum (III) ion = any of the concentrations tested (100-15000 ng/ml), bafilomycin Al 10 nM; for Bone resorption: significance of activation/inhibition vs baseline
Excerpt: The method of osteoclast culture on bone slices was originally described by Boyde et al. (1984) and by Chambers et al. (1984). For cell culture, we used a method slightly modified from the original methods (Lakkakorpi et al. 1989, Lakkakorpi and Väänänen, 1991). The rate of bone resorption in the cultures was originally determined by counting the number of resorption pits on each bone or dentine slice using a microscope with phase contrast objectives (Sundquist et al. 1990). Later, the pits were visualized using Wheat Germ Agglutinin lectin that specifically binds to the resorbed area in bone (Selander et al. 1994), making it possible to quantify the total resorbed area using a microscope and computer-assisted image analysis system (Laitala and Väänänen 1994, Hentunen et al. 1995). We used a commercially available method (CrossLaps for cultures, Osteometer Biotech, Herlev, Denmark) to detect the amount of collagen cross-links released into the culture medium as an index of the bone resorption rate (Bagger et al., 1999).
The study protocol uses a method where osteoclasts are cultured on bone slices and allowed to resorb bone. The system is ideal for determining the effect of drug candidates on the bone resorbing activity of osteoclasts. Drug candidates are added into the cell cultures at the beginning of the culture period, and the osteoclasts allowed to resorb bone for 3 days. The amount of bone resorbed during the culture period is determined and compared to the amount of bone resorbed in control cultures (those cultured in the absence of drug candidates).
Transverse 0.1 mm thick slices of cortical bone were cut from the diaphysis of fresh bovine femurs (Atria Slaughterhouse, Oulu, Finland) using a low-speed diamond saw, cleaned by ultrasonication in multiple changes of sterile distilled water, and stored at 4° C. before use. Long bones were removed from 1-day-old rat pups killed by decapitation. […] The resulting suspension of dispersed cells and bone fragments was agitated using a plastic pipette. Larger fragments were allowed to sediment for a few seconds and the supernatant was seeded onto the bone slices pre-wetted in the medium. After a settling period of 30 minutes at 37° C., the bone slices were washed by dipping in fresh medium, and then transferred to wells in 24-well culture dishes containing osteoclast culture medium. The bone slices were incubated in a humidified atmosphere of 95% air and 5% carbon dioxide at 37° C. for 72 hours.
After the culture period, the amount of bone resorption was determined by measuring the amount of collagen cross-links released into the culture medium using a commercial kit (CrossLaps for cultures, Osteometer Biotech) according to the manufacturer s instructions. The number of osteoclasts in each culture was determined by microscopic counting of the amount of TRAP-positive multinuclear cells, and the results are given as the number of collagen cross-links released per one osteoclast.
In the bone resorption assay, the amount of medium CrossLaps (nM) released into the culture medium was determined and the number of osteoclasts in the corresponding cultures calculated. The medium CrossLaps amounts were divided with the osteoclast numbers in the corresponding cultures, and the results are given on Table 1 as relative medium CrossLaps amounts per osteoclasts. The relative values were obtained by dividing each individual value with the mean value of the baseline group.

[2] = tested on: osteoclast precursors in mouse bone marrow; settings: for Relative TRAP 5b activities, Mean ± SD: relative to mean of baseline group; for Combined results on osteoclast differentiation (relative TRAP 5b activity), Mean ± SD: tables 4-6 combined, number 18 (LA 100) or 12; for Effect on osteoclast differentiation, in words: vs baseline with 1,25-dihydroxyvitamin D3; for Osteoclast differentiation: significance of activation/inhibition vs baseline
Excerpt: A method known as mouse bone marrow culture system is the one most widely used to study osteoclast differentiation. Originally, this method was developed by Takahashi et al. (1988a). Osteoclast precursors in mouse bone marrow can be induced to form multinucleated osteoclast-like cells (MNC) in the presence of either an active metabolite of vitamin D3 (1,25(OH)2D3) or parathyroid hormone (PTH). […] They form pits on bone or dentine slices (Takahashi et al. 1988a, Hattersley and Chambers 1989, Shinar et al. 1990); they express high levels of tartrate-resistant acid phosphatase (TRAP) and calcitonin receptors (Takahashi et al. 1988b, Shinar et al. 1990); and they respond to calcitonin (Takahashi et al. 1988a) and prostaglandin E2 (Collins and Chambers 1992). Thus, the method is an ideal one with which to study both stimulators and inhibitors of osteoclast differentiation.
In the original culture system, the osteoclast formation was determined after an 8-day culture. In bone marrow, both non-adherent osteoclast precursors and stromal cells are present, the latter of which are needed to support osteoclast formation. The number of osteoclasts formed is generally determined by counting the number of TRAP-positive MNC containing at least three nuclei (Takahashi et al. 1988a).
We have modified the original assay so that we culture 1×10^6 mouse marrow cells/ml for 6 days. […] Instead of counting of the number of differentiated osteoclasts formed, we measured the amount of TRAP liberated from osteoclasts into the culture medium using a fast, simple TRAP immunoassay (Halleen et al. 1999) presentation in the Annual Meeting of the American Society for Bone and Mineral Research, Sep. 30-Oct. 4, 1999, in St. Louis, Mo., USA.
8-10-week old mice were killed with CO2. Tibia and femora were dissected free from adhering soft tissues. The bone ends were cut off with a scalpel and the marrow was flushed with α-Minimal Essential Medium (α-MEM, Gibco BRL, Paisley, UK) supplemented with 100 IU/ml penicillin and 100 μg/ml streptomycin. A 10 ml syringe with a 27 gauge needle was used for flushing. Cells were centrifuged at 600×G for 10 minutes and the cell pellet was resuspended in -MEM containing 10% fetal calf serum. Cells were allowed to attach to plastic for 2 h at 37° C. in a 5% CO2 incubator to allow removal of monocytes and macrophages. Nonadherent cells were duly removed, and the […] bone marrow cells were cultured in 24-well plates (1×10^6 cells/well=1 ml) for 6 days. Half of the media were changed at day 3 and the treatments replaced. At the end of the culture, the plates were fixed with 2% paraformaldehyde in PBS for 20 minutes. Osteoclast formation was determined by measuring TRAP activity from the culture media using the novel TRAP immunoassay (vide infra), where we use a polyclonal TRAP antiserum prepared in rabbits against purified human bone TRAP. The TRAP antibody was bound to anti-rabbit IgG coated microtiter wells (Gibco BRL, Paisley, UK), and medium TRAP was then bound to the antibody. The activity of bound TRAP was measured in sodium acetate buffer using pNPP as substrate.
In this study, the effect of the lanthanum (III) ion on osteoclast differentiation in the presence of 1,25-dihydroxyvitamin D3 was tested. The following sample groups were included: • Baseline (including vehicle) • Control (Baseline without 1,25-dihydroxyvitamin D3) • Baseline+100 ng/ml lanthanum • Baseline+500 ng/ml lanthanum • Baseline+1000 ng/ml lanthanum • Baseline+5000 ng/ml lanthanum • Baseline+15000 ng/ml lanthanum
Six replicates were included in each group, and the test was performed twice. Baseline without 1,25-dihydroxyvitamin D3 was used as a control to show the test system allows inhibition of osteoclast differentiation to be detected.

[3] = first osteoclast differentiation assay, with 1,25-dihydroxyvitamin D3, 6 days, LA number = ng/ml lanthanum
[4] = second osteoclast differentiation assay, with 1,25-dihydroxyvitamin D3, 6 days, LA number = ng/ml lanthanum

Compound | Relative medium CrossLaps amounts per osteoclast, replicates 1-6 [1] | Relative medium CrossLaps amounts per osteoclast, Mean ± SD [1] | Relative medium CrossLaps amounts per osteoclasts, Mean ± SD [1] | Relative medium CrossLaps amounts per osteoclasts, replicates 1-6 [1] | Combined results on bone resorption (relative medium CrossLaps per osteoclast), Mean ± SD [1] | Relative TRAP 5b activities, Mean ± SD [2, 3] | Relative TRAP 5b activities, Mean ± SD [2, 4] | Combined results on osteoclast differentiation (relative TRAP 5b activity), Mean ± SD ([2]; LA number = ng/ml lanthanum) | Effect on bone resorption / bone resorbing activity of mature osteoclasts, in words [1] | Effect on osteoclast differentiation, in words ([2]; LA number = ng/ml lanthanum) | also measured
O.O.O.O.O=C([O-])[O-].O=C([O-])[O-].O=C([O-])[O-].[La+3].[La+3] [LA 100, lanthanum carbonate tetrahydrate] | 0.57 and 0.56 and 1.13 and 0.78 and 0.71 (2×) | 0.74 ± 0.21 | 0.74 ± 0.21 | 0.38 and 0.75 and 0.78 and 0.94 and 0.67 and 0.96 | 0.74 ± 0.20 | 0.87 ± 0.33 | 0.54 ± 0.15(**) | 0.70 ± 0.27 (**) |  |  | Relative TRAP 5b activities, Mean ± SD ([2]; third osteoclast differentiation assay with LA 100 (100 ng/ml lanthanum)): 0.69 ± 0.21(*)
O.O.O.O.O=C([O-])[O-].O=C([O-])[O-].O=C([O-])[O-].[La+3].[La+3] [LA 500, lanthanum carbonate tetrahydrate] | 1.04 and 0.58 and 1.38 and 0.75 and 0.88 and 0.63 | 0.88 ± 0.30 | 0.88 ± 0.65 | 0.50 (2×) and 2.14 and 1.03 and 0.47 and 0.63 | 0.88 ± 0.48 | 0.71 ± 0.22 | 1.07 ± 0.24 | 0.89 ± 0.29 | dose-dependent inhibition of bone resorption |  | 
O.O.O.O.O=C([O-])[O-].O=C([O-])[O-].O=C([O-])[O-].[La+3].[La+3] [LA 1000, lanthanum carbonate tetrahydrate] | 1.14 and 1.09 and 0.89 and 1.76 and 1.07 and 1.11 | 1.18 ± 0.30 | 1.13 ± 0.51 | 0.70 and 0.59 and 1.69 and 1.40 and 1.68 and 0.73 | 1.15 ± 0.40 | 0.60 ± 0.25 | 0.69 ± 0.21 | 0.65 ± 0.23 (**) |  | decreases the formation of osteoclasts | 
O.O.O.O.O=C([O-])[O-].O=C([O-])[O-].O=C([O-])[O-].[La+3].[La+3] [LA 5000, lanthanum carbonate tetrahydrate] | 1.39 and 0.78 and 2.70 and 1.18 and 0.76 and 1.21 | 1.34 ± 0.71 | 1.20 ± 0.59 | 0.48 and 1.18 and 0.77 and 0.98 and 1.99 and 1.81 | 1.27 ± 0.63 | 0.44 ± 0.06(*) | 0.56 ± 0.27(*) | 0.50 ± 0.20 (***) |  |  | 
O.O.O.O.O=C([O-])[O-].O=C([O-])[O-].O=C([O-])[O-].[La+3].[La+3] [LA 15000, lanthanum carbonate tetrahydrate] | 0.57 (2×) and 0.58 and 0.96 and 2.53 and 1.11 | 1.05 ± 0.76 | 0.63 ± 0.29 | 0.29 and 1.08 and 0.62 and 0.87 and 0.47 and 0.45 | 0.84 ± 0.59 | 0.36 ± 0.27(*) | 0.25 ± 0.07(***) | 0.30 ± 0.19 (***) | slight decrease |  | 
O.O.O.O.O=C([O-])[O-].O=C([O-])[O-].O=C([O-])[O-].[La+3].[La+3] [LA, lanthanum carbonate tetrahydrate] |  |  |  |  |  |  |  |  |  | inhibits osteoclast differentiation | Effect on amount of CrossLaps released into the culture medium or on the osteoclast number, in words ([1]; 100-15000 ng/ml lanthanum): no significant effect; Bone resorption ([1]; Dose 100 ng/ml): 0; Bone resorption ([1]; Dose 500 ng/ml): 0; Bone resorption ([1]; Dose 1000 ng/ml): 0; Bone resorption ([1]; Dose 5000 ng/ml): 0; Bone resorption ([1]; Dose 15000 ng/ml): 0; Effect on bone resorption / bone resorbing activity of mature osteoclasts, in words ([1]; listed as lanthanum): Some inhibition of bone resorption; Effect on bone resorption / bone resorbing activity of mature osteoclasts, in words ([1]; listed as lanthanum (III) ion): no statistically significant effects; Osteoclast differentiation ([2]; Dose 100 ng/ml): − −; Osteoclast differentiation ([2]; Dose 500 ng/ml): 0; Osteoclast differentiation ([2]; Dose 1000 ng/ml): − −; Osteoclast differentiation ([2]; Dose 5000 ng/ml): − − −; Osteoclast differentiation ([2]; Dose 15000 ng/ml): − − −
